Assay results from patent publication US20130338367A1, “PYRAZOLE DERIVATIVES AND PESTICIDES” (Nissan Chemical Industries, Ltd., priority 2011, published 2013).
Counter-ions that a name gives are not always drawn. Like-named read-outs stand apart in the source and are kept apart here.

Columns and labels:
Type in all cases: in vivo
Aphis gossypii = assay: Insecticidal Test on Aphis gossypii; settings: foliar, 144 h
Protocol: (§1) Wet absorbent cotton was laid on glass dishes having an inner diameter of 3 cm, and covered with leaves of cucumber cut into circles of the same diameter, and 4 apterous adults of Aphis gossypii were released. After a day, 10% emulsifiable concentrates (or 10% wettable powders) of compounds of the present invention were diluted with water containing a spreader to obtain 500 ppm solutions, and the solution were sprayed from a rotary spray tower (2.5 mg/cm^2). The dishes were covered with lids and placed in an incubator at 25° C. 6 Days after, dead insects were counted, and the mortality was calculated by using the same equation as in Test Example 1. The test was carried out in duplicate.

Myzus persicae [1] = assay: Insecticidal Test on Myzus persicae; settings: foliar, 144 h
Protocol: as §1, with “Canarium album” for “cucumber”, “Myzus persicae” for “Aphis gossypii”

Bemisia argentifolii = assay: Insecticidal Test on Bemisia argentifolii; settings: 120 h
Protocol: In styrol cups having an inner diameter of 7 cm, wet filter paper was laid, and kidney bean leaves cut to 3 cm were laid on the paper. 10% emulsifiable concentrates (or 10% wettable powders) of compounds of the present invention were diluted with water containing a spreader to obtain 500 ppm solutions. 2.5 ml of the solutions were sprayed from a rotary spray tower into the styrol cups (2.5 mg/cm^2). The leaves were dried in air, and adults of Bemisia argentifolii were released in the cups. The cups were closed and placed in an incubator at 25° C. 5 Days after, dead insects were counted, and the mortality was calculated by using the same equation as in Test Example 1. The test was carried out in duplicate.

Nilaparvata lugens = assay: Insecticidal Test on Nilaparvata lugens; settings: 144 h
Protocol: 10% emulsifiable concentrates (or 10% wettable powders) of compounds of the present invention were diluted with water containing a spreader to obtain 500 ppm solutions. Rice sheaths were soaked in the solutions for about 10 seconds, dried in air and put in test tubes. In each tube, five 2nd-instar nymphs of Nilaparvata lugens were released, and the tubes were capped with sponge and placed in an incubator at 25° C. 6 Days after, dead insects were counted, and the mortality (%) (the number of dead insects÷the number of released insects×100) was calculated. The test was carried out in duplicate.

Myzus persicae [2] = assay: Soil Irrigation Test on Myzus persicae; settings: 144 h, 100 ppm solution, 10 ml soil irrigation of cabbage seedlings, greenhouse, 6 days after release of insects
Protocol: 10% emulsifiable concentrates of compounds of the present invention were diluted with tap water to obtain 100 ppm solutions. The soil around the bases of cabbage seedlings (at the 2.5 true leaf stage) planted in plastic cups was irrigated with 10 ml of the solutions, and the cups were placed in a greenhouse. One day after the irrigation, adults of Myzus persicae were released at a ratio of 20 insects per seedling, and the seedlings were incubated in the greenhouse. 6 Days after the release of the insects, living insects were counted, and the control value was calculated from the following equation.
Control value (%)={1−(Cb×Tai)/(Cai×Tb)}×100
Cb: the number of insects in a non-treated area before treatment
Cai: the final number of living insects in a non-treated area
Tb: the number of insects in a treated area before treatment
Tai: the final number of living insects in a treated area

[3] = 500 ppm solution sprayed, apterous adults on cucumber leaf discs, 25° C., 6 days after, read-out: mortality
[4] = 500 ppm solution sprayed, apterous adults on leaf discs, 25° C., 6 days after, read-out: mortality
[5] = 500 ppm solution, rice sheaths soaked, 2nd-instar nymphs, 25° C., 6 days after, read-out: mortality (%)
[6] = 500 ppm solution sprayed on kidney bean leaves, adults, 25° C., 5 days after, read-out: mortality

| Structure (SMILES) | mortality at 500 ppm (Myzus persicae [1]; [4]) [%] | mortality at 500 ppm (Nilaparvata lugens; [5]) [%] | also measured |
| --- | --- | --- | --- |
| CCSC(C)C(=O)N(CC)c1cnn(C(C)(C)C)c1Cl (stereo not drawn) [1-001, N-(1-tert-butyl-5-chloro-1H-pyrazol-4-yl)-N-ethyl-2-(ethylthio)propanamide] | ≥ 90 |  | mortality at 500 ppm (Aphis gossypii; [3]): ≥ 90% |
| Cc1nn(-c2cccnc2)cc1N(C)C(=O)OC(C)(C)C [1-012, tert-butyl methyl{3-methyl-1-(pyridin-3-yl)-1H-pyrazol-4-yl}carbamate] |  |  | mortality at 500 ppm (Bemisia argentifolii): ≥ 90%; mortality at 500 ppm (Nilaparvata lugens; in Oryza sativa): ≥ 90%; mortality at 500 ppm (Myzus persicae [1]): ≥ 90% |
| CSCCC(=O)N(C)c1cn(-c2cccnc2)nc1C [1-018, N-methyl-N-{3-methyl-1-(pyridin-3-yl)-1H-pyrazol-4-yl}-3-(methylthio)propanamide] | ≥ 90 | ≥ 90 |  |
| O=C1C(Br)CCCN1c1cnn(-c2cccnc2)c1 (stereo not drawn) [1-027, 3-bromo-1-{1-(pyridin-3-yl)-1H-pyrazol-4-yl}piperidin-2-one] | ≥ 90 |  |  |
| CSC1CCCN(c2cnn(-c3cccnc3)c2)C1=O (stereo not drawn) [1-028, 3-(methylthio)-1-{1-(pyridin-3-yl)-1H-pyrazol-4-yl}piperidin-2-one] | ≥ 90 | ≥ 90 | mortality at 500 ppm (Aphis gossypii; [3]): ≥ 90%; mortality at 500 ppm (Bemisia argentifolii; [6]): ≥ 90% |
| CN(C(=O)OC(C)(C)C)c1cn(-c2cccnc2)nc1Cl [1-037, tert-butyl 3-chloro-1-(pyridin-3-yl)-1H-pyrazol-4-yl(methyl)carbamate] |  |  | mortality at 500 ppm (Bemisia argentifolii): ≥ 90% |
| CSCCC(=O)N(C)c1cn(-c2cccnc2)nc1Cl [1-038, N-{3-chloro-1-(pyridin-3-yl)-1H-pyrazol-4-yl}-N-methyl-3-(methylthio)propanamide] |  |  | pest or weed control at 100 ppm (Myzus persicae [2]): ≥ 90% |
| CC(C)(C)OC(=O)Nc1cn(-c2cccnc2)nc1Cl [1-046, tert-butyl 3-chloro-1-(pyridin-3-yl)-1H-pyrazol-4-ylcarbamate] |  |  | mortality at 500 ppm (Bemisia argentifolii; [6]): ≥ 90% |
| CCN(C(=O)OC(C)(C)C)c1cn(-c2cccnc2)nc1Cl [1-056, tert-butyl 3-chloro-1-(pyridin-3-yl)-1H-pyrazol-4-yl(ethyl)carbamate] |  |  | mortality at 500 ppm (Aphis gossypii): ≥ 90%; mortality at 500 ppm (Bemisia argentifolii): ≥ 90% |
| O=C(CCCCl)Nc1cn(-c2cccnc2)nc1Cl [1-131, 4-chloro-N-{3-chloro-1-(pyridin-3-yl)-1H-pyrazol-4-yl}butanamide] |  | ≥ 90 |  |
| O=C1CCCN1c1cn(-c2cccnc2)nc1Cl [1-132, 1-{3-chloro-1-(pyridin-3-yl)-1H-pyrazol-4-yl}pyrrolidin-2-one] | ≥ 90 |  |  |
| C=C1CCN(c2cn(-c3cccnc3)nc2Cl)C1=O [1-133, 1-{3-chloro-1-(pyridin-3-yl)-1H-pyrazol-4-yl}-3-methylenepyrrolidin-2-one] | ≥ 90 |  |  |
| CCN(C(=O)C(CSC)=NOC)c1cn(-c2cccnc2)nc1Cl [1-143, N-{3-chloro-1-(pyridin-3-yl)-1H-pyrazol-4-yl}-N-ethyl-2-(methoxyimino)-3-(methylthio)propanamide] |  |  | pest or weed control at 100 ppm (Myzus persicae [2]): ≥ 90% |
| C=CC(=O)N(CC)c1cn(-c2cccnc2)nc1Cl [1-152, N-{3-chloro-1-(pyridin-3-yl)-1H-pyrazol-4-yl}-N-ethylacrylamide] |  |  | mortality at 500 ppm (Bemisia argentifolii; [6]): ≥ 90% |
| CSCCCN(C(C)=O)c1cn(-c2cccnc2)nc1Cl [1-153, N-{3-chloro-1-(pyridin-3-yl)-1H-pyrazol-4-yl}-N-{3-(methylthio)propyl}acetamide] |  |  | mortality at 500 ppm (Aphis gossypii; [3]): ≥ 90%; mortality at 500 ppm (Bemisia argentifolii; [6]): ≥ 90% |
| CC(C)(C)OC(=O)Nc1cn(-c2cccnc2)nc1Br [1-188, tert-butyl 3-bromo-1-(pyridin-3-yl)-1H-pyrazol-4-ylcarbamate] |  | ≥ 90 | mortality at 500 ppm (Bemisia argentifolii; [6]): ≥ 90% |
| CCSC(C)C(=NOC)Nc1cn(-c2cccnc2)nc1Cl (stereo not drawn) [1-356, N-{3-chloro-1-(pyridin-3-yl)-1H-pyrazol-4-yl}-2-(ethylthio)-N′-methoxypropanimidamide] |  | ≥ 90 | mortality at 500 ppm (Bemisia argentifolii; [6]): ≥ 90% |
| CN(C1=NCCS1)c1cn(-c2cccnc2)nc1Cl [3-001, N-{3-chloro-1-(pyridin-3-yl)-1H-pyrazol-4-yl}-N-methyl-4,5-dihydrothiazole-2-amine] |  |  | mortality at 500 ppm (Bemisia argentifolii; [6]): ≥ 90% |

| Structure (SMILES) | mortality at 500 ppm (Myzus persicae [1]; [4]) [%] | mortality at 500 ppm (Nilaparvata lugens; [5]) [%] | also measured |
| --- | --- | --- | --- |
| Cc1c(NC(=O)OC(C)(C)C)cnn1-c1cccnc1 [5-001, tert-butyl 5-methyl-1-(pyridin-3-yl)-1H-pyrazol-4-ylcarbamate] |  |  | mortality at 500 ppm (Aphis gossypii; [3]): ≥ 90% |
| CNc1cn(-c2cccnc2)nc1C [A-001, N,3-dimethyl-1-(pyridin-3-yl)-1H-pyrazole-4-amine dihydrochloride] |  |  | mortality at 500 ppm (Aphis gossypii; [3]): ≥ 90% |
| CNc1cn(-c2cccnc2)nc1Cl [A-003, 3-chloro-N-methyl-1-(pyridin-3-yl)-1H-pyrazole-4-amine dihydrochloride] | ≥ 90 |  |  |
| CCNc1cn(-c2cccnc2)nc1Cl [A-004, 3-chloro-N-ethyl-1-(pyridin-3-yl)-1H-pyrazole-4-amine dihydrochloride] | ≥ 90 |  |  |
| Cc1nn(-c2cccnc2)cc1N [A-009, 3-methyl-1-(pyridin-3-yl)-1H-pyrazole-4-amine dihydrochloride] | ≥ 90 |  | mortality at 500 ppm (Aphis gossypii; [3]): ≥ 90% |
| CCCNc1cn(-c2cccnc2)nc1Cl [B-006, 3-chloro-N-n-propyl-1-(pyridin-3-yl)-1H-pyrazole-4-amine] | ≥ 90 | ≥ 90 | mortality at 500 ppm (Aphis gossypii; [3]): ≥ 90% |
| C#CCNc1cn(-c2cccnc2)nc1Cl [B-008, 3-chloro-N-(prop-2-ynyl)-1-(pyridin-3-yl)-1H-pyrazole-4-amine] | ≥ 90 | ≥ 90 | mortality at 500 ppm (Aphis gossypii; [3]): ≥ 90% |
| Cc1nn(-c2cccnc2)cc1N [B-009, 3-methyl-1-(pyridin-3-yl)-1H-pyrazole-4-amine] |  | ≥ 90 |  |
| FC(F)(F)CNc1cn(-c2cccnc2)nc1Cl [B-012, 3-chloro-1-(pyridin-3-yl)-N-(2,2,2-trifluoroethyl)-1H-pyrazole-4-amine] |  | ≥ 90 |  |
| CCNc1cn(-c2cccnc2)nc1C(F)(F)F [B-018, N-ethyl-1-(pyridin-3-yl)-3-(trifluoromethyl)-1H-pyrazole-4-amine] | ≥ 90 | ≥ 90 |  |
| Nc1cn(-c2cccnc2)nc1Cl [B-021, 3-chloro-1-(pyridin-3-yl)-1H-pyrazole-4-amine] |  | ≥ 90 |  |
| CSCCCNc1cn(-c2cccnc2)nc1Cl [C-001, 3-chloro-N-{3-(methylthio)propyl}-1-(pyridin-3-yl)-1H-pyrazole-4-amine] | ≥ 90 | ≥ 90 |  |
| CSCCNc1cn(-c2cccnc2)nc1Cl [C-002, 3-chloro-N-{2-(methylthio)ethyl}-1-(pyridin-3-yl)-1H-pyrazole-4-amine] | ≥ 90 | ≥ 90 |  |
| CC(C)(C)OC(=O)Nc1cnn(C(C)(C)C)c1Cl [F-001, tert-butyl 1-tert-butyl-5-chloro-1H-pyrazol-4-ylcarbamate] |  | ≥ 90 |  |
| CN(C(=O)OC(C)(C)C)c1cnn(C(C)(C)C)c1Cl [G-002, tert-butyl 1-tert-butyl-5-chloro-1H-pyrazol-4-yl(methyl)carbamate] |  |  | mortality at 500 ppm (Myzus persicae [1]): ≥ 90% |
| CCNc1cnn(C(C)(C)C)c1Cl [H-001, 1-tert-butyl-5-chloro-N-ethyl-1H-pyrazole-4-amine hydrochloride] | ≥ 90 |  |  |
| CCSC(C)C(=O)N(CC)c1c[nH]nc1Cl (stereo not drawn) [J-001, N-(3-chloro-1H-pyrazol-4-yl)-N-ethyl-2-(ethylthio)propanamide] | ≥ 90 |  |  |
